Test results reported in patent US20140039044A1, “Hydroxylated Polymethoxyflavone Compositions” (WLLGEN, INC., priority 2006, published 2014).

How the values were obtained:
Assay type in all cases: cell-based, human
[1] = test system: AGS cells; test: Cell cycle distribution by flow cytometry; conditions: 24 h, Table 11
Procedure: (§1) The human cancer cells (2×10^5) were cultured in 60-mm Petri dishes and incubated for 24 h. After treated with test compounds for 24 h, the cells were then harvested, washed with PBS resuspended in 200 μL of PBS, and fixed in 800 μL of iced 100% ethanol at −20° C. After being left to stand overnight, the cell pellets were collected by centrifugation, resuspended in 1 mL of hypotonic buffer (0.5% Triton X-100 in PBS and 0.5 μg/mL RNase) and incubated at 37° C. for 30 min. Next, 1 mL of propidium iodide solution (50 μg/mL) was added, and the mixture was allowed to stand on ice for 30 min. Fluorescence emitted from the propidium iodide-DNA complex was quantitated after excitation of the fluorescent dye by FACScan cytometry (Becton Dickinson, San Jose, Calif.).
(§2) The effects of the hydrolyzed PMF-enriched compositions, nobiletin and 70% PMF OPE on cell cycle distribution were studied, following the procedures described in Section 8.4. Results for cell cycle distribution in HL-60 cells, COLO205 cells and AGS cells are provided in Table 5, Table 6 and Table 7, respectively. […] In HL-60 cells, G2/M arrest predominated in cells treated with 6N PMF concentrations ≧5 μM and with 1N PMF concentrations ≧25 μM.
(§3) Compounds A-K were evaluated in terms of their effects in arresting cell cycle progression by observing cell cycle phase distribution in cells treated with the compounds. Cells were treated with 5, 10, 25, 50, and 100 μM of one of compound A-K or DMSO (control) for 24 h and subjected to flow cytometric analysis after staining their DNA, as described above.
(§4) Similar cell cycle phase distribution studies were performed in AGS, COLO205, and HT-29 cells in response to individual PMFs, with results reported in Tables 11, 12 and 13, respectively.

[2] = test system: COLO205 cells; test: Cell cycle distribution by flow cytometry; conditions: COLO205 cells, 24 h, Table 12
Procedure: as §1, §2, §3, §4

[3] = test system: HT-29 cells; test: Cell cycle distribution by flow cytometry; conditions: 24 h
Procedure: as §1, §3, §4

[4] = test system: HL-60 cells; test: Cell survival assay (antiproliferative IC50); conditions: Homo sapiens; HL-60 cells; read-out: Antiproliferative IC50
Procedure: (§5) Human colon carcinoma COLO205 and HT-29 cell lines (American Type Culture Collection (ATTC), Manassas, Va.) and the leukemia cell line HL-60 were maintained at 37° C. in 5% CO2 air in RPMI 1640 medium supplemented with 10% heat-inactivated fetal bovine serum (Gibco BRL, Grand Island, N.Y.), 100 units/mL penicillin, 100 μg/mL streptomycin and 2 mM 1-glutamine. The human gastric carcinoma AGS cell line (CCRC 60102), obtained from the Food Industry Research and Development Institute (Hsinchu, Taiwan), was maintained as described above, except that DMEM/F 12 was used as the medium rather than the RPMI 1640 medium. The human breast carcinoma MCF-7 cell line MCF-7 (ATTC) was cultured in RPMI 1640 medium supplemented with 5% fetal calf serum at 37° C. in a humidified atmosphere of 5% CO2 in air. The mouse macrophage cell line RAW 264.7 was maintained in RPMI 1640 supplemented with 100 U/ml penicillin, 100 μg/ml streptomycin, and 10% heat-inactivated fetal calf serum.
(§6) Cancer cells (2×10^5) were plated in 12-well Petri dishes. The next day, the medium was changed and treated with different concentration of the test compounds or compositions for 24 h. Where individual compounds were to be tested, stock solutions of the compound was prepared to contain 200 μM of the individual hydroxylated or non-hydroxylated PMF in dimethylsulfoxide (DMSO). Control cells were treated with DMSO to a final concentration of 0.05% (v/v). Depending on the objective of the particular experiment, cells were treating with test compound or composition for 1, 3 or 6 days. At the end of incubation, cells were harvested for cell count using a hemocytometer and measuring the cellular total nucleic acid content with the CyQUANT Cell Proliferation Assay Kit (Molecular Probes).
(§7) 1 N PMF and 6 N PMF compositions containing hydroxylated PMFs, prepared as described in Section 8.3 above, 70% PMF OPE and 5,6,7,8,3′,4′-hexamethoxyflavone (nobiletin) were tested for antiproliferative activity and apoptosis-inducing activity in HL-60, AGS and COLO205 cells as described in Section 8.4 above. Antiproliferative and apoptosis-inducing activities were derived as IC50 values and AC50, values, respectively, where AC50 is the concentration required for 50% apoptosis.
(§8) The PMF compounds were assayed in vitro for cell growth inhibition and for their ability to induce apoptosis in various human cancer cells, including HL-60, AGS, COLO 205, and HT-29 cells, using methods described in Section 8.4 above. Antiproliferative (IC50) and apoptosis-inducing activity (AC50) of PMFs in the HL-60, AGS, COLO 205, and HT-29 cells are reported in Table 9, where *P<0.05, **P<0.01 and ***P<0.001 indicate statistically significant differences from the control group.

[5] = test system: AGS cells; test: Cell survival assay (antiproliferative IC50); conditions: Homo sapiens; AGS cells; read-out: Antiproliferative IC50
Procedure: as §5, §6, §7, §8

[6] = test system: COLO205 cells; test: Cell survival assay (antiproliferative IC50); conditions: Homo sapiens, COLO 205; COLO205 cells; read-out: Antiproliferative IC50
Procedure: as §5, §6, §7, §8

Structure (SMILES): COc1ccc(-c2cc(=O)c3c(O)c(OC)c(OC)c(OC)c3o2)cc1OC [J, 5-hydroxy-6,7,8,3′,4′-pentamethoxyflavone]
- Cell Cycle Distribution G0/G1 ([1]; 5 μM): 58.65 ± 1.77
- Cell Cycle Distribution G2/M ([1]; 5 μM): 13.51 ± 1.20
- Cell Cycle Distribution S ([1]; 5 μM): 27.84 ± 0.56
- Cell Cycle Distribution G0/G1 ([1]; 10 μM): 57.07 ± 1.02
- Cell Cycle Distribution G2/M ([1]; 10 μM): 13.84 ± 0.52
- Cell Cycle Distribution S ([1]; 10 μM): 29.09 ± 1.54
- Cell Cycle Distribution G0/G1 ([1]; 25 μM): 58.84 ± 4.84
- Cell Cycle Distribution G2/M ([1]; 25 μM): 14.00 ± 4.20
- Cell Cycle Distribution S ([1]; 25 μM): 27.17 ± 0.64
- Cell Cycle Distribution G0/G1 ([1]; 50 μM): 52.82 ± 3.22
- Cell Cycle Distribution G2/M ([1]; 50 μM): 15.74 ± 0.11
- Cell Cycle Distribution S ([1]; 50 μM): 31.45 ± 3.31
- Cell Cycle Distribution G0/G1 ([1]; 100 μM): 58.11 ± 1.11
- Cell Cycle Distribution G2/M ([1]; 100 μM): 12.71 ± 0.25
- Cell Cycle Distribution S ([1]; 100 μM): 29.24 ± 1.28
- Cell Cycle Distribution G0/G1 ([2]; 5 μM): 56.75 ± 1.52
- Cell Cycle Distribution G2/M ([2]; 5 μM): 7.41 ± 0.30
- Cell Cycle Distribution S ([2]; 5 μM): 35.85 ± 1.22
- Cell Cycle Distribution G0/G1 ([2]; 10 μM): 59.63 ± 0.88
- Cell Cycle Distribution G2/M ([2]; 10 μM): 7.07 ± 0.86
- Cell Cycle Distribution S ([2]; 10 μM): 31.99 ± 1.85
- Cell Cycle Distribution G0/G1 ([2]; 25 μM): 63.97 ± 0.56
- Cell Cycle Distribution G2/M ([2]; 25 μM): 6.38 ± 1.05
- Cell Cycle Distribution S ([2]; 25 μM): 29.65 ± 1.61
- Cell Cycle Distribution G0/G1 ([2]; 50 μM): 64.90 ± 1.44
- Cell Cycle Distribution G2/M ([2]; 50 μM): 6.41 ± 0.13
- Cell Cycle Distribution S ([2]; 50 μM): 28.69 ± 1.57
- Cell Cycle Distribution G0/G1 ([2]; 100 μM): 62.39 ± 2.98
- Cell Cycle Distribution G2/M ([2]; 100 μM): 7.05 ± 0.13
- Cell Cycle Distribution S ([2]; 100 μM): 30.57 ± 2.84
- Cell Cycle Distribution G0/G1 ([3]; 5 μM): 64.81 ± 0.41
- Cell Cycle Distribution G2/M ([3]; 5 μM): 9.52 ± 0.05
- Cell Cycle Distribution S ([3]; 5 μM): 25.68 ± 0.46
- Cell Cycle Distribution G0/G1 ([3]; 10 μM): 62.87 ± 0.40
- Cell Cycle Distribution G2/M ([3]; 10 μM): 9.02 ± 0.16
- Cell Cycle Distribution S ([3]; 10 μM): 28.11 ± 0.57
- Cell Cycle Distribution G0/G1 ([3]; 25 μM): 62.04 ± 1.24
- Cell Cycle Distribution G2/M ([3]; 25 μM): 8.46 ± 0.09
- Cell Cycle Distribution S ([3]; 25 μM): 29.51 ± 1.15
- Cell Cycle Distribution G0/G1 ([3]; 50 μM): 60.39 ± 0.28
- Cell Cycle Distribution G2/M ([3]; 50 μM): 9.93 ± 0.06
- Cell Cycle Distribution S ([3]; 50 μM): 29.55 ± 0.52
- Cell Cycle Distribution G0/G1 ([3]; 100 μM): 62.44 ± 1.00
- Cell Cycle Distribution G2/M ([3]; 100 μM): 7.89 ± 0.69
- Cell Cycle Distribution S ([3]; 100 μM): 29.67 ± 1.68
- IC50 [4]: > 100 µM
- IC50 [5]: > 100 µM
- IC50 [6]: > 100 µM
